We go through 23 compounds from patent publication US8426437B2, “Pyrroloquinoline derivatives and their use as protein kinases inhibitors” (Pierre Fabre Medicament, priority 2005, dated 2013).

SMILES strings stand for the structures. Where a name gives a salt, the structure may show the parent alone. A value given as a limit tells only on which side of the number the result lay.

Holding throughout (type): biochemical
For one experiment, the target named is T1, TrkA (Homo sapiens, UniProt P04629).
T1 construct: purchased Upstate 14-571
T1 sequence (P04629 33-796): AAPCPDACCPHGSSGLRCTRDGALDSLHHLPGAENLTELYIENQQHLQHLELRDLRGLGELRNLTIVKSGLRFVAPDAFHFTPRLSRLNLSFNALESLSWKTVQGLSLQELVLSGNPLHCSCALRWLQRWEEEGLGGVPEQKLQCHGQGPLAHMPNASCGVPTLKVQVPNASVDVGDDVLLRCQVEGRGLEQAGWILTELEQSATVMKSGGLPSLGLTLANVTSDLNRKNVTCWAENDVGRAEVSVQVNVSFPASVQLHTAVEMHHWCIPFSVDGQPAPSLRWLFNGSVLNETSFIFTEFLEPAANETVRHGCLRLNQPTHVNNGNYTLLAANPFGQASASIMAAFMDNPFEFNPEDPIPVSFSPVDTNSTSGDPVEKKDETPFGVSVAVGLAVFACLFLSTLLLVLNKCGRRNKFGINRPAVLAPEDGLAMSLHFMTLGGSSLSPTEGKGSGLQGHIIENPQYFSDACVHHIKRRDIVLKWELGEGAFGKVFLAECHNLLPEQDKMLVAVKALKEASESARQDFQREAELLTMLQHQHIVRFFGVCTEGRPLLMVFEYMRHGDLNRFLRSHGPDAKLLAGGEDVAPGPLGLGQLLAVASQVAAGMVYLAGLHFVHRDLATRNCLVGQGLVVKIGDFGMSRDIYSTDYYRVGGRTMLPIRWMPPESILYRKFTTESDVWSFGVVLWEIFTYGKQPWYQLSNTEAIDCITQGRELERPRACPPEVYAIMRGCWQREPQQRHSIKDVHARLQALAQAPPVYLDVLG
In words: Inhibition of kinase TrkA (Kinase-Glo). The note with it: TrkA 4 μg/ml, 30 μM ATP, two hours at 30° C. The protocol:
Protein TrkA (Upstate 14-571; batch #25634U) is incubated at a concentration of 4 μg/ml in a buffer containing 8 mM of MOPS/NaOH pH7, 0.2 mM EDTA, 40 mM MgAc (Sigma #229768), 1 mM DTT (Fluka #43816), NaOV 1 mM, 0.01% Triton Tx100, in the presence of 1 mg/ml of peptide substrate poly-EY (Upstate #P0275), and 30 μM of ATP.
The dilution buffer for TrkA is as follows: 20 mM MOPS/NaOH pH7, 1 mM EDTA, 5% glycerol, 0.01% Brij35, 0.1% 2-mercapto, 1 mg/ml BSA.
(§1) The compound to be tested is first added to the enzyme to give a reaction volume of 50 μl. The dilution of the compounds of the invention is distributed so as to obtain a scale of final concentrations between 10 nM and 30 μM.
(§2) After incubation of the reaction mixture for two hours at 30° C., the level of ATP that remains is assayed using the Kinase-Glo Luminescent Kinase Assay (Promega #V6712) according to the conditions recommended by the supplier. The luminescence induced is read in a plate reader (Envision-Perkin Elmer).

The next experiment concerns the target T2, TrkB (Homo sapiens, UniProt Q16620).
T2 construct: purchased Upstate 14-507
In words: Inhibition of kinase TrkB (Kinase-Glo). The note with it: TrkB 4 μg/ml, 40 μM ATP, two hours at 30° C. The protocol: Protein TrkB (Upstate 14-507; batch #25578U) is incubated at a concentration of 4 μg/ml in a buffer containing 8 mM of MOPS/NaOH pH7, 0.2 mM EDTA, 40 mM MgAc (Sigma #229768), 1 mM DTT (Fluka #43816), NaOV 1 mM, 25 mM 2-glycerolphosphate (Sigma #G9891), in the presence of 2.5 mg/ml of peptide substrate poly-EY (Upstate #P0275), and 40 μM of ATP.
The dilution buffer for TrkB is as follows: 20 mM MOPS/NaOH pH7, 1 mM EDTA, 5% glycerol, 0.01% Brij35, 0.1% 2-mercapto, 1 mg/ml BSA.
as §1, §2
(Kinase-Glo measures the ATP left after a reaction by luminescence.)

Another experiment has as its target T3, RET (Homo sapiens, UniProt P07949).
T3 construct: purchased Upstate 14-570MG
In words: Inhibition of RET kinase activity, recombinant RET method (Kinase-Glo). The conditions noted are these: RET 2 μg/ml, poly-EY4 substrate, 20 μM ATP, two hours at 30° C. The gist of the method: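 Recombinant RET at 2 μg/ml in 20 mM MOPS/NaOH pH 7.0, 1 mM EDTA, 5% glycerol, 0.01% Brij35, 0.1% 2-mercaptoethanol, 1 mg/ml BSA; compounds 10 nM–30 μM final.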

A further experiment concerns the target T4, PIM-1 (Homo sapiens, UniProt P11309).
T4 construct: purchased Upstate 14-573
In words: Inhibition of kinase PIM-1 (Kinase-Glo). The note with it: PIM-1 0.625 μg/ml, 10 μM ATP, forty minutes at 30° C. The protocol: Protein PIM-1 (Upstate #14-573 batch 25864U) is incubated at a concentration of 0.625 μg/ml in a buffer containing 8 mM of MOPS/NaOH pH7, 0.2 mM EDTA, 5 mM MgAc (Sigma #229768), 0.01% Triton Tx100, in the presence of 70 μM of peptide substrate S6 Kinase/Rsk2 (Upstate #12-243), and 10 μM of ATP.
The dilution buffer for PIM-1 is as follows: 20 mM MOPS/NaOH pH7, 1 mM EDTA, 5% glycerol, 0.01% Brij35, 0.1% 2-mercapto, 1 mg/ml BSA
as §1
After incubation of the reaction mixture for forty minutes at 30° C., the level of ATP that remains is assayed using the Kinase-Glo Luminescent Kinase Assay (Promega #V6712) according to the conditions recommended by the supplier. The luminescence induced is read in a plate reader (Envision-Perkin Elmer).

T3 sequence (P07949 29-1114): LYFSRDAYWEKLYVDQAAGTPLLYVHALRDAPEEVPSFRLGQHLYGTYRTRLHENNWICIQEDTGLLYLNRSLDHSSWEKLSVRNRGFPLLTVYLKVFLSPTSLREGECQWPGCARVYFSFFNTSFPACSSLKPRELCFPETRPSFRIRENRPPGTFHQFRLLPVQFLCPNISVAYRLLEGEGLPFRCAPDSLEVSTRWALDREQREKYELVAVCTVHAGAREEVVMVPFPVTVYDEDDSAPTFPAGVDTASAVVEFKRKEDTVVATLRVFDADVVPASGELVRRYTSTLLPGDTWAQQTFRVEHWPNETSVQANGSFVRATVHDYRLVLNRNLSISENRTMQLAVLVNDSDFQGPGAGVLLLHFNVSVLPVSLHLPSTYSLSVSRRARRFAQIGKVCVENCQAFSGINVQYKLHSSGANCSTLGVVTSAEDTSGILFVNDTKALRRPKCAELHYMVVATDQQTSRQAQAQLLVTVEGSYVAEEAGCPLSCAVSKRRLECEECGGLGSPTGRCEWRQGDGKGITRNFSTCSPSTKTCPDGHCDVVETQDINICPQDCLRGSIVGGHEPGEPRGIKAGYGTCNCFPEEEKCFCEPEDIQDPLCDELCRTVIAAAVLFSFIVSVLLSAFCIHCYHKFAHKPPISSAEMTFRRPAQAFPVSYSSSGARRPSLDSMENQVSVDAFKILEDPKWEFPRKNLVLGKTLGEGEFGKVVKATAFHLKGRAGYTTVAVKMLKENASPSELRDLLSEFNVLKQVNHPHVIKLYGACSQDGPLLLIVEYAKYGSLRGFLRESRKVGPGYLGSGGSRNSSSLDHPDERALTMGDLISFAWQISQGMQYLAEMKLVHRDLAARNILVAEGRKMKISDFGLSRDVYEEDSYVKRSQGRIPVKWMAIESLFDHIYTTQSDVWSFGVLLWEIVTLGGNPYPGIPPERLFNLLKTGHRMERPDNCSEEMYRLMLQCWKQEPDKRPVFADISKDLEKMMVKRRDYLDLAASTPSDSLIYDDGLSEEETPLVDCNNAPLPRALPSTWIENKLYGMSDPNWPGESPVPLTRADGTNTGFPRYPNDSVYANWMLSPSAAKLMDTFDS
T4 sequence (P11309 whole entry): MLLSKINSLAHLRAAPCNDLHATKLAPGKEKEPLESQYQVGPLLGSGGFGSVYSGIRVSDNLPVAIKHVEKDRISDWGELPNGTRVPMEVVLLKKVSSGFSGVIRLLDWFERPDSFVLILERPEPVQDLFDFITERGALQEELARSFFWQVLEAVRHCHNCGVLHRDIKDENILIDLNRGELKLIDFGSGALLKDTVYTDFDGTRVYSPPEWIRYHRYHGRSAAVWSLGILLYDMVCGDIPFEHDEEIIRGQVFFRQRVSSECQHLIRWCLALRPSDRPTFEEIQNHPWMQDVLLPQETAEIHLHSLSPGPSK
T2 sequence (Q16620 32-822): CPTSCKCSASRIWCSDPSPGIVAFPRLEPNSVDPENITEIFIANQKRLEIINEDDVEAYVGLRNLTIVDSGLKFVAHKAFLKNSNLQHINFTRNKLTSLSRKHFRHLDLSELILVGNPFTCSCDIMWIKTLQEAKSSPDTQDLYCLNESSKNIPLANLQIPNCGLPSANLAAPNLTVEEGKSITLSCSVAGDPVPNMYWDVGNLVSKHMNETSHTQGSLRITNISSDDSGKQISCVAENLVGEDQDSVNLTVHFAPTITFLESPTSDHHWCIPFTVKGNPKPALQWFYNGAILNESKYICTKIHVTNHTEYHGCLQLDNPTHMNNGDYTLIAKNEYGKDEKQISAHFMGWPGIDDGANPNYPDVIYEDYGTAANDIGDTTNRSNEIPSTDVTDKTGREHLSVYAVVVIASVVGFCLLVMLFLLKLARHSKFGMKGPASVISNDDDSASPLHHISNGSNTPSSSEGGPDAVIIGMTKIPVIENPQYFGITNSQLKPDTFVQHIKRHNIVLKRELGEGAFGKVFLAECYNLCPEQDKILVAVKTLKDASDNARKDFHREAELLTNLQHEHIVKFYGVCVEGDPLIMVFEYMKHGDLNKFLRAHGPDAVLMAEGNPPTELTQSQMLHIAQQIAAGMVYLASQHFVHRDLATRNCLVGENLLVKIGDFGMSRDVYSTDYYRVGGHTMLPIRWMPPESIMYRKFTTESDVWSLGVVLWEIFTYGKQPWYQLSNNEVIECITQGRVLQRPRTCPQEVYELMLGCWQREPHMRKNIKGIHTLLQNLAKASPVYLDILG

A word on the IC50: it is the concentration that gives 50% inhibition. As to `CCOC(=O)c1c[nH]c2c(=O)[nH]c3ccc(S(=O)(=O)Nc4ccccc4)cc3c12` [Compound 2, 4-Oxo-8-phenylsulfamoyl-4,5-dihydro-3H-pyrrolo[2,3-c]quinoline-1-ethyl carboxylate], the results for the IC50 against TrkA, against TrkB and at RET were 1000 to 10000 nM, 1000 to 10000 nM and below 100 nM, respectively.

`CCOC(=O)c1c[nH]c2c(=O)[nH]c3ccc(S(=O)(=O)Nc4ccc(C)cc4)cc3c12` [Compound 6, 4-Oxo-8-p-tolylsulfamoyl-4,5-dihydro-3H-pyrrolo[2,3-c]quinoline-1-ethyl carboxylate]: the figures for the IC50 at TrkA, at TrkB and at RET were 10000 to 100000 nM, 10000 to 100000 nM and 100 to 1000 nM, respectively.

Take `CCOC(=O)c1c[nH]c2c(=O)[nH]c3ccc([N+](=O)[O-])cc3c12` [Compound 66, 8-Nitro-4-oxo-4,5-dihydro-3H-pyrrolo[2,3-c]quinoline-1-ethyl carboxy late]: the IC50 on PIM-1 and on RET was 1000 to 10000 nM throughout.

As for `CCOC(=O)c1c[nH]c2c(=O)[nH]c3ccc(/C=C/c4ccccc4)cc3c12` [Compound 70, 4-Oxo-8-styryl-4,5-dihydro-3H-pyrrolo[2,3-c]quinoline-1-ethyl carboxylate], the IC50 against PIM-1 and at RET was 1000 to 10000 nM each time.

With `CCOC(=O)c1c[nH]c2c(=O)[nH]c3ccc(Br)cc3c12` [Compound 71, 8-Bromo-4-oxo-4,5-dihydro-3H-pyrrolo[2,3-c]quinoline-1-ethyl carboxylate], the IC50 on PIM-1 lay within 1000 to 10000 nM; on RET it was 100 to 1000 nM.

As for `CN(C)CCNC(=O)c1c[nH]c2c(=O)[nH]c3ccccc3c12` [Compound 79, N-(2-Dimethylamino-ethyl)-4-oxo-4,5-dihydro-3H-pyrrolo[2,3-c]quinoline-1-carboxamide], the 50% inhibitory concentration (IC50) on PIM-1 and at RET was 10000 to 100000 nM each time.

On to `COC(=O)c1c[nH]c2c(=O)[nH]c3ccc(S(=O)(=O)N4CCN(C)CC4)cc3c12` [Compound 95, 8-(4-Methyl-piperazine-1-sulfonyl)-4-oxo-4,5-dihydro-3H-pyrrolo[2,3-c]quinoline-1-methyl carboxylate], for which the half-maximal inhibitory concentration (IC50) against PIM-1 fell in the range of 10000 to 100000 nM; on RET, 1000 to 10000 nM.

Consider `O=C(OC1CCCC1)c1c[nH]c2c(=O)[nH]c3ccc(S(=O)(=O)NC4CCNCC4)cc3c12` [Compound 116, 4-Oxo-8-(piperidin-4-ylsulfamoyl)-4,5-dihydro-3H-pyrrolo[2,3-c]quinoline-1-cyclopentyl carboxylate], for which the IC50 is 1000 to 10000 nM against PIM-1 and below 100 nM at RET.

For `O=C(OCC1CCOC1)c1c[nH]c2c(=O)[nH]c3ccc(S(=O)(=O)NC4CCNCC4)cc3c12` (stereo not drawn) [Compound 118, 4-Oxo-8-(piperidin-4-ylsulfamoyl)-4,5-dihydro-3H-pyrrolo[2,3-c]quinoline-1-methyltetrahydrofuran-3-yl carboxylate], the half-inhibitory concentration (IC50) on PIM-1 was in the range of 10000 to 100000 nM; at RET, 100 to 1000 nM.

Regarding `CCOC(=O)c1c[nH]c2c(=O)[nH]c3ccc(S(=O)(=O)NCC4CCNCC4)cc3c12` [Compound 121, 4-Oxo-8-[(piperidin-4-ylmethyl)-sulfamoyl]-4,5-dihydro-3H-pyrrolo[2,3-c]quinoline-1-ethyl carboxylate], the half-maximal inhibitory concentration (IC50) on PIM-1 and on RET was 1000 to 10000 nM each time.

As to `CCOC(=O)c1c[nH]c2c(=O)[nH]c3ccc(I)cc3c12` [Compound 209, 8-Iodo-4-oxo-4,5-dihydro-3H-pyrrolo[2,3-c]quinoline-1-ethyl carboxylate], the IC50 on PIM-1 and on RET was 100 to 1000 nM each time.

As to `CCOC(=O)c1c[nH]c2c(=O)[nH]c3ccc(SC4CCCCC4)cc3c12` [Compound 221, 8-Cyclohexylsulfanyl-4-oxo-4,5-dihydro-3H-pyrrolo[2,3-c]quinoline-1-ethyl carboxylate], the IC50 on PIM-1 lay within 1000 to 10000 nM; on RET, 100 to 1000 nM.

On to `CCOC(=O)c1c[nH]c2c(=O)[nH]c3ccc(SCc4ccccc4)cc3c12` [Compound 222, 8-Benzylsulfanyl-4-oxo-4,5-dihydro-3H-pyrrolo[2,3-c]quinoline-1-ethyl carboxylate], for which the figures for the IC50 on PIM-1 and on RET were 1000 to 10000 nM and 100 to 1000 nM, respectively.

Regarding `CCOC(=O)c1c[nH]c2c(=O)[nH]c3ccc(-c4cccc(CNC)c4)cc3c12` [Compound 241, 8-(3-Methylaminomethyl-phenyl)-4-oxo-4,5-dihydro-3H-pyrrolo[2,3-c]quinoline-1-ethyl carboxylate], the IC50 against PIM-1 fell in the range of 1000 to 10000 nM; at RET it was 100 to 1000 nM.

`CCOC(=O)c1c[nH]c2c(=O)[nH]c3ccc(-c4ccc(N)cc4)cc3c12` [Compound 244, 8-(4-Aminophenyl)-4-oxo-4,5-dihydro-3H-pyrrolo[2,3-c]quinoline-1-ethyl carboxylate]: the half-maximal inhibitory concentration (IC50) against PIM-1 and on RET was 100 to 1000 nM in each case.

Take `CCOC(=O)c1c[nH]c2c(=O)[nH]c3ccc(-c4ccc(Cl)nc4)cc3c12` [Compound 259, 8-(6-Chloro-pyridin-3-yl)-4-oxo-4,5-dihydro-3H-pyrrolo[2,3-c]quinoline-1-ethyl carboxylate]: the half-maximal inhibitory concentration (IC50) against PIM-1 and at RET was 1000 to 10000 nM throughout.

Regarding `CCOC(=O)c1c[nH]c2c(=O)[nH]c3ccc(-c4ccnc(N)n4)cc3c12` [Compound 261, 8-(2-Amino-pyrimidin-4-yl)-4-oxo-4,5-dihydro-3H-pyrrolo[2,3-c]quinoline-1-ethyl carboxylate], the values for the IC50 against PIM-1 and on RET were 10000 to 100000 nM and 100 to 1000 nM, respectively.

With `CCOC(=O)c1c[nH]c2c(=O)[nH]c3ccc(-c4ccnc(N(C)C)n4)cc3c12` [Compound 262, 8-(2-Dimethylamino-pyrimidin-4-yl)-4-oxo-4,5-dihydro-3H-pyrrolo[2,3-c]quinoline-1-ethyl carboxylate], the half-maximal inhibitory concentration (IC50) against PIM-1 and at RET was 1000 to 10000 nM each time.

`CCOC(=O)c1c[nH]c2c(=O)[nH]c3ccc(-c4ccnc(NC)n4)cc3c12` [Compound 263, 8-(2-Methylamino-pyrimidin-4-yl)-4-oxo-4,5-dihydro-3H-pyrrolo[2,3-c]quinoline-1-ethyl carboxylate formate]: the 50% inhibitory concentration (IC50) on PIM-1 is 1000 to 10000 nM; at RET, 100 to 1000 nM.

Regarding `CCOC(=O)c1c[nH]c2c(=O)[nH]c3ccc(-c4ccnc(N5CCN(C(C)=O)CC5)n4)cc3c12` [Compound 268, 8-[2-(4-Acetyl-piperazin-1-yl)-pyrimidin-4-yl]-4-oxo-4,5-dihydro-3H-pyrrolo[2,3-c]quinoline-1-ethyl carboxylate], the half-inhibitory concentration (IC50) on PIM-1 and at RET was 1000 to 10000 nM throughout.

Take `CCOC(=O)c1c[nH]c2c(=O)[nH]c3ccc(-c4ccnc(N(C)CCN(C)C)n4)cc3c12` [Compound 269, 8-{2-[(2-Dimethylamino-ethyl)-methyl-amino]-pyrimidin-4-yl}-4-oxo-4,5-dihydro-3H-pyrrolo[2,3-c]quinoline-1-ethyl carboxylate formate]: the IC50 at PIM-1 and at RET was 1000 to 10000 nM each time.

Regarding `CCOC(=O)c1c[nH]c2c(=O)[nH]c3ccc(-c4csc(N)n4)cc3c12` [Compound 270, 8-(2-Amino-thiazol-4-yl)-4-oxo-4,5-dihydro-3H-pyrrolo[2,3-c]quinoline-1-ethyl carboxylate], the results for the IC50 at PIM-1 and at RET were 10000 to 100000 nM and 100 to 1000 nM, respectively.

As for `CCOC(=O)c1c[nH]c2c(=O)[nH]c3ccc(-c4csc(C5CCNCC5)n4)cc3c12` [Compound 277, 4-Oxo-8-(2-piperidin-4-yl-thiazol-4-yl)-4,5-dihydro-3H-pyrrolo[2,3-c]quinoline-1-ethyl carboxylate], the results for the IC50 against PIM-1 and at RET were 1000 to 10000 nM and 100 to 1000 nM, respectively.
